Source: paper PMC5508574 (Nature biotechnology, 2016)

Experiments:
[1] = tested on: 4 EGFR-mutant cell lines in the pool; experiment: PRISM compound assay, mixture of 25 barcoded lung adenocarcinoma cell lines; assay type: cell-based, human; conditions: 0–10 μM, 5 days, viability relative to DMSO
[2] = tested on: 25 barcoded lung adenocarcinoma cell lines in mixture; experiment: as above; assay type: cell-based, human; conditions: 0–10 μg/ml, 5 days, viability relative to DMSO
NCI-H3122 cell line = experiment: as above; assay type: cell-based, human; conditions: 0–10 μM, 5 days, in mixture
NCI-H2228 = experiment: as above; assay type: cell-based, human; conditions: 0–10 μM, 5 days, in mixture
[3] = tested on: BRAF-mutant vs BRAF wild-type cell lines; experiment: PRISM, 100 barcoded cell lines in 4 pools of 25, BRAF genotype comparison; conditions: AUC of viability, 100 cell lines, PRISM (and Nuclei, ATP)

For `C#Cc1cccc(Nc2ncnc3cc(OCCOC)c(OCCOC)cc23)c1` [erlotinib], the “Killing of EGFR-mutant cell lines in the pool” value [1] was “dose-dependent killing”.

With `COc1ccc(C[C@H](N)C(=O)N[C@H]2[C@@H](O)[C@H](n3cnc4c(N(C)C)ncnc43)O[C@@H]2CO)cc1` [puromycin] the “Pattern of cell killing across the pool” value [2] was “uniform killing across the pool”.

With `COc1cc(N2CCC(N3CCN(C)CC3)CC2)ccc1Nc1ncc(Cl)c(Nc2ccccc2S(=O)(=O)C(C)C)n1` [NVP-TAE-684] the “Sensitivity of NCI-H3122 (EML4-ALK translocation)” value (NCI-H3122 cell line) was “sensitive” and the “Sensitivity of NCI-H2228 (different EML4-ALK translocation)” value (NCI-H2228) was “intrinsic resistance”.

In the case of `CCCS(=O)(=O)Nc1ccc(F)c(C(=O)c2c[nH]c3ncc(Cl)cc23)c1F` [PLX4720], the “Differential sensitivity of BRAF-mutant vs BRAF wild-type cell lines” value [3] is reported as “hypersensitivity”.

With `CNC(=O)c1cc(Oc2ccc(NC(=O)Nc3ccc(Cl)c(C(F)(F)F)c3)cc2)ccn1` [sorafenib] the “Differential sensitivity of BRAF-mutant vs BRAF wild-type cell lines” value [3] was “No significant differential sensitivity”.
